Source: US12441733B2, “Substituted 2,4-dioxotetrahydropyrimidines as intermediates in the synthesis of bruton's tyrosine kinase inhibitors” (Novartis AG, priority 2018, dated 2025)

Target: T1, IKZF3-GFP (Homo sapiens, UniProt Q96SW2+Q9UKT9)
T1 construct: expressed in transfected cells; host or cells: HEK293A (Invitrogen R70507), lentiviral transduction with pLenti6-IKZF3-GFP-Ires-RFP, blasticidin selection
Assay: IKZF3-GFP protein abundance flow cytometry assay in HEK293A cells
Format: cell-based
Conditions: HEK293A IKZF3-GFP-iresRFP cells, 24 h; for DC50: GFP signal by flow cytometry; for IKZF3 deg Amax: % protein remaining at maximum degradation
Experimental: BTK-GFP and IKZF3-GFP protein abundance flow cytometry assay in HEK293A cells:
Degradation of BTK or IKZF3 was measured in HEK293A cells (Invitrogen R70507) expressing either BTK-GFP and RFP or IKZF3-GFP and RFP from a stably integrated bicistronic BTK-GFP-iresRFP or IKZF3-GFP-iresRFP construct, respectively. Reduction of the GFP signal measured by flow cytometry served as readout for BTK or IKZF3 degradation after degrader treatment.
By analogy the bicistronic pLenti6-IKZF3-GFP-iresRFP was engineered by gateway cloning of IKZF3 from a pENTR221-IKZF3(STOP-Leu) construct into the previously described pLenti6-DEST-GFP-Ires-RFP vector using the LR Clonase kit (Invitrogen 11791-019) according to the manufacturer's manual. All vectors described have been sequenced for verification.
ii) Engineering of Stably Expressing 293A BTK-GFP-Ires-RFP and IKZF3-GFP-Ires-RFP Sensor Cells
293A BTK-GFP-Ires-RFP and IKZF3-GFP-ires-RFP sensor cells were generated by lentiviral vector transduction using the pLenti6-BTK-GFP-Ires-RFP or pLenti6-IKZF3-GFP-Ires-RFP sensor construct described before. Lentiviral particles were produced in HEK293FT cells (Invitrogen R70007) by co-transfection of 500 ng pLenti6-BTK-GFP-ires-RFP or pLenti6-IKZF3-GFP-Ires-RFP, 500 ng delta8.71 and 200 ng pVSVG diluted in 100 μl OptiMEM serum free medium (Invitrogen #11058-021) that was mixed after 5 min preincubation with 3 μl of Lipofectamine2000 (Invitrogen #11668-019) in 97 μl OptiMEM serum free medium. The mix was incubated for another 20 min at RT and then added on 1 ml of a freshly prepared suspension of HEK293FT cells in a well of a 6-well plate (concentration 1.2×10^6 cells/ml). 1 day after transfection, the medium was replaced with 1.5 ml of complete growth medium (DMEM high Glucose+10% FCS+1% L-Glutamine+1% NEAA+1% NaPyr.). 48 h post transfection supernatant containing viral transducing particles was collected and frozen at −80° C.
Two days before transduction with viral particles 1×10^5 HEK293A cells (Invitrogen R70507) were seeded in 2 ml growth medium in a well of a 6-well plate. Infection was performed with 90 μl of collected supernatant containing viral transducing particles in 1 ml medium including 8 μg/ml polybrene. 24 h post infection, stably transfected cells were selected with blasticidin at a concentration of 8 μg/ml.
Iii) Quantitative BTK-GFP and IKZF3-GFP Abundance Measurements
Stable HEK293A-BTK-GFP-iresRFP cells were maintained in complete growth medium (DMEM high Glucose+10% FCS+1% L-Glutamine+1% NEAA+1% NaPyr.) with passaging performed twice per week. On Day 0, HEK293A-BTK-GFP-iresRFP or HEK293A-IKZF3-GFP-iresRFP and HEK293A-iresRFP cells were seeded at 10,000 cells/well in a 96-well microtiter plate in 260 μl complete medium. On Day 1, cells were treated in duplicate with 10-point 1:3 dilution series of compound using the HP D300 Digital Dispenser (Tecan). DMSO concentrations were normalized across the plate to 0.1%. On Day 2, after 24 h of incubation at 37° C., treatment media was discarded, cells rinsed with 100 μl/well PBS and then detached using 40 μl trypsin/well for 5 min. Trypsin was neutralized with 100 μl/well PBS+20% FCS). Flow cytometry was performed on the samples using the BD FACS CANTO II (Becton Dickinson). Cell identification was then performed using forward (FSC) vs. side scatter (SSC) plots. […] Median GFP values for 5,000 single cells are used to determine BTK levels. Median GFP values from HEK293A-iresRFP are used as a background signal and thus defining 0% BTK signal. Median GFP values from DMSO treated HEK293A-BTK-GFP-iresRFP or HEK293A-IKZF3-GFP-iresRFP are used to define 100% BTK signal for subsequent DC50 curves (concentration at 50% BTK degradation).

T1 sequence (Q9UKT9 whole entry): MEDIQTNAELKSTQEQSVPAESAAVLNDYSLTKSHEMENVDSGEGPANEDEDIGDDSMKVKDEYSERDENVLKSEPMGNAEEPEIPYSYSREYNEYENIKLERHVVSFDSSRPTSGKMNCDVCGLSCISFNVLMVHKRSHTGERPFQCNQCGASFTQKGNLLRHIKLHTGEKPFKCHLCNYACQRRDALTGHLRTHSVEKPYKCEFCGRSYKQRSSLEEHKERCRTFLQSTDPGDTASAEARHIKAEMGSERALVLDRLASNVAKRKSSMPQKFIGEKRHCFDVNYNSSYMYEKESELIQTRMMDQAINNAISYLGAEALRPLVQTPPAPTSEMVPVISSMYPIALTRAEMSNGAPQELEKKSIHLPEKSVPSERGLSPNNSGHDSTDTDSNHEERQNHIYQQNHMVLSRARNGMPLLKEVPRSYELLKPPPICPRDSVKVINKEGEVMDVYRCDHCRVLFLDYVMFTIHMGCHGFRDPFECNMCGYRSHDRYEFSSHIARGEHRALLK
T1 sequence (Q96SW2 whole entry): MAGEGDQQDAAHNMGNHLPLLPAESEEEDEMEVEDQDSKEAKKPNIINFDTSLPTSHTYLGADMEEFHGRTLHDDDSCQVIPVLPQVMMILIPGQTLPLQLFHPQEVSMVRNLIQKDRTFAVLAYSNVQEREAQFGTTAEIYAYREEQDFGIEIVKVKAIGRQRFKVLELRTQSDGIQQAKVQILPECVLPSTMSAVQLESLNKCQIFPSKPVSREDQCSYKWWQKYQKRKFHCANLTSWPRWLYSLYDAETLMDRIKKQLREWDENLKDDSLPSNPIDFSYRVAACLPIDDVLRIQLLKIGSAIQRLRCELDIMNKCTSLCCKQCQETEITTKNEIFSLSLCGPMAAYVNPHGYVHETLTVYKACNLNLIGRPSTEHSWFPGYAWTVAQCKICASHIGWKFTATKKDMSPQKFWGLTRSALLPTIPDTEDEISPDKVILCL
T1 sequence (Q16531 whole entry partner): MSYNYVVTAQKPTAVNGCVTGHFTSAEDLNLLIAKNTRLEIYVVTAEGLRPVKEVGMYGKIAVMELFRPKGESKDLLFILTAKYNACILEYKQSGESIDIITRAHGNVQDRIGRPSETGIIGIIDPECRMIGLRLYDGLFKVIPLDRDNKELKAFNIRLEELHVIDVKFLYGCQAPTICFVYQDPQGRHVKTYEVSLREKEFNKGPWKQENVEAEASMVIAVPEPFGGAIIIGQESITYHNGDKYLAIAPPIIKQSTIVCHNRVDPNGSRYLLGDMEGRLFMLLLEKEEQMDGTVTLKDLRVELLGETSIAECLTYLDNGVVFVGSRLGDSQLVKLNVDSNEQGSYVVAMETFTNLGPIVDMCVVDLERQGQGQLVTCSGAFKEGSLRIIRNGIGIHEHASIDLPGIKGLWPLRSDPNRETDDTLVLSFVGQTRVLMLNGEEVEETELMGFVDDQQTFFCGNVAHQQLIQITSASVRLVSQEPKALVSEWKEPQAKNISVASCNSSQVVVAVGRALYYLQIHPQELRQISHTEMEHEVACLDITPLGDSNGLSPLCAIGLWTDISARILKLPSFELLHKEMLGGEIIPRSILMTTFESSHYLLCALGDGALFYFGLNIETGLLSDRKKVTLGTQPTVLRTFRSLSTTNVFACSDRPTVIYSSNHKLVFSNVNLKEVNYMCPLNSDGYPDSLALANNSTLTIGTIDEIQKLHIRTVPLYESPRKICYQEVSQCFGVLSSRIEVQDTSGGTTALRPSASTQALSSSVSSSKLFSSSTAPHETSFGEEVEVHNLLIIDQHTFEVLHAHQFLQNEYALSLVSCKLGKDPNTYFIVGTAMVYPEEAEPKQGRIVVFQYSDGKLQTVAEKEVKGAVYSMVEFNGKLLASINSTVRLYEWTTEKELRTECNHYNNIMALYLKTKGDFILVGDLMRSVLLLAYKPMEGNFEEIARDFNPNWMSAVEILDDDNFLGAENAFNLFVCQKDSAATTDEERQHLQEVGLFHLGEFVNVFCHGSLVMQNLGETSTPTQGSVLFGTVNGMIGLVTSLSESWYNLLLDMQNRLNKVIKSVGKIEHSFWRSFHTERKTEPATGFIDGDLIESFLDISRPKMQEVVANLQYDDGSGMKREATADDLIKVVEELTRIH

| Structure (SMILES) | DC50 [µM] | IKZF3 deg Amax [%] |
| --- | --- | --- |
| COc1ccc(C(=O)N2CCC3(CCN(Cc4ccc(-c5cc6c(-c7cc(F)cc(NC(=O)c8ccc(C(C)(C)O)cc8F)c7C)ncnc6[nH]5)cc4)CC3)CC2)cc1N1CCC(=O)NC1=O [Compound 9, N-(3-(6-(4-((9-(3-(2,4-Dioxotetrahydropyrimidin-1(2H)-yl)-4-methoxybenzoyl)-3,9-diazaspiro[5.5]undecan-3-yl)methyl)phenyl)-7H-pyrrolo[2.3-d]pyrimidin-4-yl)-5-fluoro-2-methylphenyl)-2-fluoro-4-(2-hydroxypropan-2-yl)benzamide] | > 7.8 | 99.1 |
| Cc1ccc(C(=O)N2CCC3(CCN(CCc4ccc(-c5cc6c(-c7cc(F)cc(NC(=O)c8ccc(C(C)(C)O)cc8F)c7C)ncnc6[nH]5)cc4)CC3)CC2)cc1N1CCC(=O)NC1=O [Compound 5, N-(3-(6-(4-(2-(9-(3-(2,4-Dioxotetrahydropyrimidin-1(2H)-yl)-4-methylbenzoyl)-3,9-diazaspiro[5.5]undecan-3-yl)ethyl)phenyl)-7H-pyrrolo[2,3-d]pyrimidin-4-yl)-5-fluoro-2-methylphenyl)-2-fluoro-4-(2-hydroxypropan-2-yl)benzamide] | > 0.37 | 103.3 |
| Cc1c(NC(=O)c2ccc(C(C)(C)O)cc2F)cc(F)cc1-c1ncnc2[nH]c(-c3ccc(COC4CCN(CCC5CCN(C(=O)c6ccc(F)c(N7CCC(=O)NC7=O)c6)CC5)CC4)cc3)cc12 [Compound 6, N-(3-(6-(4-(((1-(2(1-(3-(2,4-dioxotetrahydropyrimidin-1(2H)-yl)-4-fluorobenzoyl)piperidin-4-yl)ethyl)piperidin-4-yl)oxyl)methyl)phenyl)-7H-pyrrolo[2,3-d]pyrimidin-4-yl)-5-fluoro-2-methylphenyl)-2-fluoro-4-(2-hydroxypropan-2-yl)benzamide] | > 10 | 100.8 |
| COc1ccc(C(=O)N2CCC3(CC2)CCN(C(C)(C)Cc2ccc(-c4cc5c(-c6cc(F)cc(NC(=O)c7ccc(C(C)(C)O)cc7F)c6C)ncnc5[nH]4)cc2)CC3)cc1N1CCC(=O)NC1=O [Compound 20, N-(3-(6-(4-(2-(9-(3-(2,4-Dioxotetrahydropyrimidin-1(2H)-yl)-4-methoxybenzoyl)-3,9-diazaspiro[5.5]undecan-3-yl)-2-methylpropyl)phenyl)-7H-pyrrolo[2,3-d]pyrimidin-4-yl)-5-fluoro-2-methylphenyl)-2-fluoro-4-(2-hydroxypropan-2-yl)benzamide] | > 1.1 | 93.3 |
| Cc1cc(F)c(C(=O)NCCCCCNCc2ccc(-c3cc4c(-c5cc(F)cc(NC(=O)c6ccc(C(C)(C)O)cc6F)c5C)ncnc4[nH]3)cc2)cc1N1CCC(=O)NC1=O [Compound 29, 5-(2,4-Dioxotetrahydropyrimidin-1(2H)-yl)-2-fluoro-N—(S-((4-(4-(5-fluoro-3-(2-fluoro-4-(2-hydroxypropan-2-yl)benzamido)-2-methylphenyl)-7H-pyrrolo[2,3-d]pyrimidin-6-yl)benzyl)amino)pentyl)-4-methylbenzamide] | > 3.3 | 98.6 |
| COc1ccc(C(=O)NCCN2CCOC3(CCN(Cc4ccc(-c5cc6c(-c7cc(F)cc(NC(=O)c8ccc(C(C)(C)O)cc8F)c7C)ncnc6[nH]5)cc4)CC3)C2)cc1N1CCC(=O)NC1=O [Compound 39, N-(3-(6-(4-((4-(2-(3-(2,4-dioxotetrahydropyrimidin-1(2H)-yl)-4-methoxybenzamido)ethyl)-1-oxa-4,9-diazaspiro[5.5]undecan-9-yl)methyl)phenyl)-7H-pyrrolo[2,3-d]pyrimidin-4-yl)-5-fluoro-2-methylphenyl)-2-fluoro-4-(2-hydroxypropan-2-yl)benzamide] | > 10 | 94.5 |
| COc1ccc(C(=O)NCCN2CCC3(CC2)CCN(Cc2ccc(-c4cc5c(-c6cc(F)cc(NC(=O)c7ccc(C(C)(C)O)cc7F)c6C)ncnc5[nH]4)cc2)CC3)cc1N1CCC(=O)NC1=O [Compound 44, N-(3-(6-(4-((9-(2-(3-(2,4-dioxotetrahydropyrimidin-1(2H)-yl)-4-methoxybenzamido)ethyl)-3,9-diazaspiro[5.5]undecan-3-yl)methyl)phenyl)-7H-pyrrolo[2,3-d]pyrimidin-4-yl)-5-fluoro-2-methylphenyl)-2-fluoro-4-(2-hydroxypropan-2-yl)benzamide] | > 3.3 | 99.7 |
| COc1ccc(C(=O)N2CCN(C(=O)N3CCN(Cc4ccc(-c5cc6c(-c7cc(F)cc(NC(=O)c8ccc(C(C)(C)O)cc8F)c7C)ncnc6[nH]5)cc4)CC3)CC2)cc1N1CCC(=O)NC1=O [Compound 22, N-(3-(6-(4-((4-(4-(3-(2,4-Dioxotetrahydropyrimidin-1(2H)-yl)-4-methoxybenzoyl)piperazine-1-carbonyl)piperazin-1-yl)methyl)phenyl)-7H-pyrrolo[2,3-d]pyrimidin-4-yl)-5-fluoro-2-methylphenyl)-2-fluoro-4-(2-hydroxypropan-2-yl)benzamide] | > 10 | 99.7 |
| Cc1c(NC(=O)c2ccc(C(C)(C)O)cc2F)cc(F)cc1-c1ncnc2[nH]c(-c3ccc(CN4CCC5(CC4)CCN(C(=O)c4ccc(F)c(N6CCC(=O)NC6=O)c4)CC5)cc3)cc12 [Compound 14, N-(3-(6-(4-((9-(3-(2,4-Dioxotetrahydropyrimidin-1(2H)-yl)-4-fluorobenzoyl)-3,9-diazaspiro[5.5]undecan-3-yl)methyl)phenyl)-7H-pyrrolo[2.3-d]pyrimidin-4-yl)-5-fluoro-2-methylphenyl)-2-fluoro-4-(2-hydroxypropan-2-yl)benzamide] | > 1.1 | 100.2 |
| COc1ccc(C(=O)N2CCC(OC3CCN(Cc4ccc(-c5cc6c(-c7cc(F)cc(NC(=O)c8ccc(C(C)(C)O)cc8F)c7C)ncnc6[nH]5)cc4)CC3)CC2)cc1N1CCC(=O)NC1=O [Compound 8, N-(3-(6-(4-((4-((1-(3-(2,4-dioxotetrahydropyrimidin-1(2H)-yl)-4-methoxybenzoyl)piperidin-4-yl)oxyl)piperidin-1-yl)methyl)phenyl)-7H-pyrrolo[2,3-d]pyrimidin-4-yl)-5-fluoro-2-methylphenyl)-2-fluoro-4-(2-hydroxypropan-2-yl)benzamide] | > 2.6 | 103.3 |
| COc1ccc(C(=O)N2CCC(CN3CCC(Oc4ccc(-c5cc6c(-c7cc(F)cc(NC(=O)c8ccc(C(C)(C)O)cc8F)c7C)ncnc6[nH]5)cc4)CC3)CC2)cc1N1CCC(=O)NC1=O [Compound 19, N-(3-(6-(4-((1-((1-(3-(2,4-Dioxotetrahydropyrimidin-1(2H)-yl)-4-methoxybenzoyl)piperidin-4-yl)methyl)piperidin-4-yl)oxyl)phenyl)-7H-pyrrolo[2,3-d]pyrimidin-4-yl)-5-fluoro-2-methylphenyl)-2-fluoro-4-(2-hydroxypropan-2-yl)benzamide] | > 10 | 100.5 |
